{"source": "patent US6359142B1", "about": "(priority 1998, dated 2002)", "key": {"Phytophthora infestans": {"system": "Phytophthora infestans", "assay_type": "in vivo", "conditions": "tomato, protective, application rate 50 g/ha, evaluation 3 days after inoculation; 0% = control, 100% = no infection"}}}
{"smiles": "CCc1[nH]c(=O)oc1C#N", "note": "[5-cycano-4-ethyl-3H-[1,3]-oxazol-2-one]", "values": [{"measurement": "logP", "setting": "log p", "result": 0.88}]}
{"smiles": "CCc1c(C#N)oc(=O)n1S(=O)(=O)c1c(C)noc1C", "note": "[Example 1, 5-cyano4-ethyl-3-(3,5-dimethyl-isoxazole-4-sulphonyl)-3H-[1,3]-oxazol-2-one]", "values": [{"measurement": "melting point", "result": "117 to 122", "unit": "°C"}, {"measurement": "logP", "setting": "log p", "result": 2.87}, {"measurement": "Efficacy in %", "setting": "Phytophthora infestans", "result": 94, "unit": "%"}]}
